Patent US9181161B2, “Use of dicyclohexylmethanol derivatives having antimicrobial properties” (MERCK PATENT GmbH, priority 2012, dated 2015)

Legend:
Type in all cases: cell-based
[1] = tested on: Staphylococcus epidermidis (ATCC 12228); assay: Determination of the bacteriostatic action, microbe count after incubation; settings: for Final microbe count: sample 2.0% in water/ethanol (12% of ethanol), mixed 1:1 with suspension, 35° C., 24 h or 48 h, initial count 1.6 × 10^4
Procedure: (§1) For sample preparation, substances I-1 and I-5 being investigated are homogeneously dispersed in an amount of 2.0% in a water/ethanol mixture (12% of ethanol) (=sample). A suspensions of Staphylococcus epidermidis (ATCC 12228) having an optical density of 1.0 in CASO broth (Merck 1.05459) is diluted 1:10000 with CASO broth. 500 μl of sample are added to […] of microorganism suspension, and the mixture is incubated at 35° C. for 24 h or 48 h. After the incubation, the test batches are diluted to −6 in 10 unit steps, and 0.1 ml of each is plated-out on CASO agar (Merck 1.05458) and incubated at 35° C. for 24 h.
(§2) In order to determine the initial microbe count, 0.1 ml of the bacteria suspension used are plated-out on CASO agar (Merck 1.05458) and incubated at 35° C. for 24 h.
(§3) The colonies are subsequently counted, and the microbe count per ml is determined compared with the negative control (12% of ethanol in water).
(§4) The concentrations indicated are the final use concentrations. In order to prepare the stock solution, double the final concentration are prepared in the solvent indicated. This is subsequently diluted 1:2 with the corresponding microbe suspension. In the case of Aspergillus brasiliensis, the microbe count determination is exceptionally carried out after 48 h, in the case of Malassezia furfur after 72 h.

[2] = tested on: Propionibacterium acnes (ATCC 6919); assay: Microbe count after incubation, carried out in accordance with Example 1; settings: for Final microbe count: as Example 1, sample 2.0% in water/ethanol (12% of ethanol), initial count 8.3 × 10^4; for Δlog: t24 h vs t0
Procedure: as §1, §2, §3
The experiment is carried out in accordance with Example 1. Instead of the action on Staphylococcus epidermidis, the action of substances I-1 and I-5 on the test microbe Propionibacterium acnes is investigated.
as §4

[3] = tested on: Malassezia furfur; assay: Microbe count after incubation (Example 3); settings: 1.0% final conc., H2O
Procedure: as §1, §2, §3, §4

[4] = tested on: Aspergillus brasiliensis; assay: Microbe count after incubation (Example 3); settings: 1.0% final conc., H2O (12% of ethanol)
Procedure: as §1, §2, §3, §4

[5] = tested on: Candida albicans; assay: Microbe count after incubation (Example 3); settings: 1.0% final conc., H2O (12% of ethanol)
Procedure: as §1, §2, §3, §4

[6] = tested on: Staphylococcus aureus; assay: Microbe count after incubation (Example 3); settings: 1.0% final conc., H2O (12% of ethanol)
Procedure: as §1, §2, §3, §4

[7] = tested on: Salmonella enterica; assay: Microbe count after incubation (Example 3); settings: 0.5% final conc., H2O
Procedure: as §1, §2, §3, §4

[8] = tested on: Corynebacterium xerosis; assay: Microbe count after incubation (Example 3); settings: 0.5% final conc., H2O
Procedure: as §1, §2, §3, §4

Compound	Final microbe count [1]	Final microbe count [2] [CFU/ml]	Microbe count t24 h ([1]; 0.5% final conc., H2O (12% of ethanol), t0 1.6 × 10^4)	Δlog ([1]; 0.5% final conc., H2O (12% of ethanol), t24 h vs t0)	Microbe count t24 h ([3]; count after 72 h, t0 4.0 × 10^2)	Δlog ([3]; count after 72 h vs t0)	Microbe count t24 h ([4]; count after 48 h, t0 8.0 × 10^2)	Δlog ([4]; count after 48 h vs t0)	Microbe count t24 h ([5]; t0 6.0 × 10^3)	Δlog ([5]; t24 h vs t0)	Microbe count t24 h ([6]; t0 7.2 × 10^4)	Δlog ([6]; t24 h vs t0)	Microbe count t24 h ([7]; t0 1.0 × 10^6)	Δlog ([7]; t24 h vs t0)	Microbe count t24 h ([8]; t0 1.0 × 10^6)	Δlog ([8]; t24 h vs t0)	Microbe count t24 h ([2]; 0.25% final conc., H2O, t0 5.4 × 10^5)	Δlog ([2]; 0.25% final conc., H2O)	Microbe count t24 h ([2]; 0.5% final conc., H2O (12% of ethanol), t0 8.3 × 10^4)	Δlog ([2]; 0.5% final conc., H2O (12% of ethanol))
COC1CCC(C(O)C2CCCCC2)C(O)C1 (stereo not shown) [Substance I-5, 2-(cyclohexylhydroxymethyl)-5-methoxy-cyclohexanol]	7.0 × 10^3 CFU/ml	0	–	–	–	–	–	–	–	–	–	–	–	–	–	–	–	–	–	–
OC1CCC(C(O)C2CCCCC2)CC1 (stereo not shown) [Substance I-1, 4-(cyclohexylhydroxymethyl)cyclohexanol]	7.4 × 10^3 CFU/ml	0	7.4 × 10^3	−0.34	0	−2.60	0	−2.90	0	−3.78	0	−4.86	5.1 × 10^6	+0.71	1.3 × 10^6	+0.11	2.4 × 10^5	−0.35	0	−4.92
